Laboratory results reported in ChEMBL document CHEMBL5329190, “Screening and optimization of phage display cyclic peptides against the WDR5 WBM site” (RSC Med Chem, 2023).

Biological target: WD repeat-containing protein 5 (Homo sapiens, UniProt P61964)
Experiment: Binding affinity to his sumo tagged N-terminal WDR5 (23 to […] residues) (unknown origin) incubated for 3 hrs by HTRF binding assay

IC50, > 100 µM:
CC(C)[C@H](NC(=O)[C@H](CC(=O)O)NC(=O)[C@H](C)NC(=O)[C@H](CCC(=O)O)NC(=O)CNC(=O)[C@H](CCC(=O)O)NC(=O)CNC(=O)[C@@H](N)CS)C(=O)N[C@@H](CS)C(=O)O, NCCCC[C@H](NC(=O)[C@H](Cc1c[nH]c2ccccc12)NC(=O)[C@H](CCC(N)=O)NC(=O)[C@H](CC(N)=O)NC(=O)[C@@H]1CCCN1C(=O)[C@@H](N)CS)C(=O)N[C@@H](CO)C(=O)N[C@@H](Cc1ccc(O)cc1)C(=O)N[C@@H](CS)C(=O)O, CC(C)C[C@H](NC(=O)[C@H](Cc1ccccc1)NC(=O)[C@@H](N)CS)C(=O)N[C@@H](CC(N)=O)C(=O)N[C@H](C(=O)N[C@@H](CO)C(=O)N[C@@H](CC(N)=O)C(=O)N[C@@H](C)C(=O)N[C@@H](CS)C(=O)O)C(C)C
